Measured values: patent US20240246935A1 (Plexium, Inc., priority 2021, published 2024)

system: IKZF2 (Helios); assay: IKZF2 reporter degradation assay (HEK 293T IKZF2-mNeonGreen reporter cell line); format: cell-based, human; conditions: 1 μM compound, 24 hour incubation, HEK 293T IKZF2-mNeonGreen reporter
Outline: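 HEK 293T lines stably expressing each IKZF-GGGGS×3-mNeonGreen-P2A-mScarlet reporter, 4000 cells/well in FluoroBrite medium, treated with compound (≤0.5% DMSO) for 24 h at 37 °C. Imaging measured percent mNeonGreen-positive cells, with mScarlet used for segmentation; DC50 from four-parameter logistic fit.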

SMILES | IKZF2 % Degradation @ 1 μM
N#Cc1cc(Cl)ccc1C1CN([C@@H]2CCCC[C@@H]2Oc2ccc3c(c2)CN(C2CCC(=O)NC2=O)C3=O)C1 (mixture of isomers) [Compound 100, Rac-5-chloro-2-(1-((cis)-2-((2-(2,6-dioxopiperidin-3-yl)-1-oxoisoindolin-5-yl)oxy)cyclohexyl)azetidin-3-yl)benzonitrile] | <15%
O=C1CCC(N2Cc3cc(O[C@H]4CCCC[C@@H]4N4CC(c5ccc(F)cc5)C4)ccc3C2=O)C(=O)N1 (single isomer, unassigned) [Compound 50] | 73.6%
O=C1CCC(N2Cc3cc(O[C@H]4CCCC[C@@H]4N4CC(c5ccccc5)C4)c(F)cc3C2=O)C(=O)N1 (single isomer, unassigned) [Compound 52] | 90.5%
O=C1CCC(N2Cc3c(ccc(O[C@H]4CCCC[C@@H]4N4CC(c5ccccc5)C4)c3F)C2=O)C(=O)N1 (single isomer, unassigned) [Compound 65] | 75.1%
O=C1CCC(N2Cc3c(ccc(O[C@H]4CCCC[C@@H]4N4CC(c5ccccc5)C4)c3F)C2=O)C(=O)N1 (single isomer, unassigned) [Compound 66] | 74.8%
O=C1CCC(N2Cc3cc(O[C@H]4CCCC[C@@H]4N4CC(c5cccc(OC(F)(F)F)c5)C4)ccc3C2=O)C(=O)N1 (stereo partly drawn) [Compound 35, 3-(1-oxo-5-(((1S,2S)-2-(3-(3-(trifluoromethoxy)phenyl)azetidin-1-yl)cyclohexyl)oxy)isoindolin-2-yl)piperidine-2,6-dione] | 84.6%
O=C1CCC(N2Cc3cc(O[C@H]4CCCC[C@@H]4N4CC(c5ccccc5OC(F)(F)F)C4)ccc3C2=O)C(=O)N1 (stereo partly drawn) [Compound 36, 3-(1-oxo-5-(((1S,2S)-2-(3-(2-(trifluoromethoxy)phenyl)azetidin-1-yl)cyclohexyl)oxy)isoindolin-2-yl)piperidine-2,6-dione] | 82.3%
O=C1CCC(N2Cc3cc(O[C@H]4CCCC[C@@H]4N4CC(c5cccc(F)c5F)C4)ccc3C2=O)C(=O)N1 (stereo partly drawn) [Compound 64, 3-(5-(((1S,2S)-2-(3-(2,3-difluorophenyl)azetidin-1-yl)cyclohexyl)oxy)-1-oxoisoindolin-2-yl)piperidine-2,6-dione] | 76.3%
O=C1CCC(N2Cc3cc(O[C@H]4CCCC[C@@H]4N4CC(c5cccc(F)c5)C4)ccc3C2=O)C(=O)N1 (stereo partly drawn) [Compound 111, 3-(5-(((1S,2S)-2-(3-(3-fluorophenyl)azetidin-1-yl)cyclohexyl)oxy)-1-oxoisoindolin-2-yl)piperidine-2,6-dione] | 76.5%
O=C1CCC(N2Cc3cc(O[C@H]4CCCC[C@@H]4N4CC(c5ccc(N6CCOCC6)cc5)C4)ccc3C2=O)C(=O)N1 (stereo partly drawn) [Compound 124, 3-(5-(((1S,2S)-2-(3-(4-morpholinophenyl)azetidin-1-yl)cyclohexyl)oxy)-1-oxoisoindolin-2-yl)piperidine-2,6-dione] | 70.2%
O=C1CC[C@@H](N2Cc3cc(O[C@H]4CCCC[C@@H]4N4CC(c5ccccc5)C4)ccc3C2=O)C(=O)N1 [Compound 125, (R)-3-(1-oxo-5-(((1S,2S)-2-(3-phenylazetidin-1-yl)cyclohexyl)oxy)isoindolin-2-yl)piperidine-2,6-dione] | 83.2%
O=C1CCC(N2Cc3cc(O[C@H]4CCCC[C@@H]4N4CC(c5ccccc5C(F)(F)F)C4)ccc3C2=O)C(=O)N1 (stereo partly drawn) [Compound 129, 3-(1-oxo-5-(((1S,2S)-2-(3-(2-(trifluoromethyl)phenyl)azetidin-1-yl)cyclohexyl)oxy)isoindolin-2-yl)piperidine-2,6-dione] | 83.8%
O=C(O)CC(O)(CC(=O)O)C(=O)O.O=C1CCC(N2Cc3cc(O[C@H]4CCCC[C@@H]4N4CC(c5ccccc5)C4)ccc3C2=O)C(=O)N1 (stereo partly drawn) [Compound 130, 3-(1-oxo-5-(((1S,2S)-2-(3-phenylazetidin-1-yl)cyclohexyl)oxy)isoindolin-2-yl)piperidine-2,6-dione 2-hydroxypropane-1,2,3-tricarboxylate] | 84.8%
O=C1CCC(N2Cc3cc(O[C@H]4CCCCC[C@@H]4N4CC(c5ccccc5)C4)ccc3C2=O)C(=O)N1 (stereo partly drawn) [Compound 131, 3-(1-oxo-5-(((1S,2S)-2-(3-phenylazetidin-1-yl)cycloheptyl)oxy)isoindolin-2-yl)piperidine-2,6-dione] | 92.3%
O=C1CCC(N2Cc3cc(O[C@H]4CCCC[C@@H]4N4CC(c5ccc(O)cc5)C4)ccc3C2=O)C(=O)N1 (stereo partly drawn) [Compound 132, 3-(5-(((1S,2S)-2-(3-(4-hydroxyphenyl)azetidin-1-yl)cyclohexyl)oxy)-1-oxoisoindolin-2-yl)piperidine-2,6-dione] | 77.2%
O=C1CCC(N2Cc3cc(O[C@H]4CCCC[C@@H]4N4CC(c5ccccc5O)C4)ccc3C2=O)C(=O)N1 (stereo partly drawn) [Compound 133, 3-(5-(((1S,2S)-2-(3-(2-hydroxyphenyl)azetidin-1-yl)cyclohexyl)oxy)-1-oxoisoindolin-2-1)piperidine-2,6-dione] | 56.4%
O=C1CCC(N2Cc3cc(O[C@H]4CCCC[C@@H]4N4CC(c5cccc(O)c5)C4)ccc3C2=O)C(=O)N1 (stereo partly drawn) [Compound 134, 3-(5-(((1S,2S)-2-(3-(3-hydroxyphenyl)azetidin-1-yl)cyclohexyl)oxy)-1-oxoisoindolin-2-yl)piperidine-2,6-dione] | 75%
